The text below walks through data of patent US7067248B2 (priority 2002, dated 2006).

One assay concerns orthopoxvirus. Particulars: cited from earlier work.
Assay [1] relates to VV. Type of assay: cell-based, vaccinia virus.
The subject of assay [2] is VV. Particulars: cited from earlier work.

With `Nc1ccn(C[C@@H](CO)OCP(=O)(O)O)c(=O)n1` [Cidofovir], the Anti-orthopoxvirus activity result in the assay with orthopoxvirus was “potent anti-orthopoxvirus inhibitor”.

As to pepstatin A, the VV replication result in the assay on VV [1] was “no effect”. In the case of `CN1C(=O)/C(=N\NC(N)=S)c2ccccc21` [methisazone, N-methylisatin β-thiosemicarbazone], the Anti-orthopoxvirus activity result in the assay on orthopoxvirus was “effective at inhibiting orthopoxvirus infections in cultured cells”. On to `c1cnc2c(c1)ccc1cccnc12` [1,10-phenanthroline], for which, in the assay with VV [1], the “Inhibition of VV replication (FIG. 12)” value is listed as “potent inhibitors of VV replication” and the VV replication entry was “completely blocked”. Turning to `c1cnc2c(c1)ccc1ncccc12` [1,7-phenanthroline], the VV replication result with VV [1] is given as “no effect”. For the compound `NC(=O)CI` [iodoacetamide], in the assay on VV [1], the “Inhibition of VV replication (FIG. 12)” value was “potent inhibitors of VV replication” and the VV replication entry was “completely blocked”. For the compound α-amanitin, the “Phenotype of VV replication” value in the assay on VV [2] was “abortive-late phenotype”.
